This note sets out measurements from paper PMC8571951, “An activity‐based bioprobe differentiates a novel small molecule inhibitor from a LOXL2 antibody and provides renewed promise for anti‐fibrotic therapeutic strategies” (Clinical and Translational Medicine, 2021).

Assay [1] relates to streptozotocin and high fat diet-induced model of NASH. Kind of assay: Streptozotocin and high fat diet-induced mouse model of NASH. Type of assay: in vivo. As to the method: PXS-5338 was evaluated in a 14-week mouse model of NASH (Takakura, Koido et al. 2014), dosing therapeutically at 10 mg/kg from weeks 8-12 and increasing to 30 mg/kg from weeks 12-14. […] Telmisartan served as a positive pharmacological control.

In assay [2] the target is T1, LOXL2 (Rattus norvegicus, UniProt B5DF27).
T1 construct: from tissue; host or cells: rat plasma and lung
T1 sequence (B5DF27 26-776): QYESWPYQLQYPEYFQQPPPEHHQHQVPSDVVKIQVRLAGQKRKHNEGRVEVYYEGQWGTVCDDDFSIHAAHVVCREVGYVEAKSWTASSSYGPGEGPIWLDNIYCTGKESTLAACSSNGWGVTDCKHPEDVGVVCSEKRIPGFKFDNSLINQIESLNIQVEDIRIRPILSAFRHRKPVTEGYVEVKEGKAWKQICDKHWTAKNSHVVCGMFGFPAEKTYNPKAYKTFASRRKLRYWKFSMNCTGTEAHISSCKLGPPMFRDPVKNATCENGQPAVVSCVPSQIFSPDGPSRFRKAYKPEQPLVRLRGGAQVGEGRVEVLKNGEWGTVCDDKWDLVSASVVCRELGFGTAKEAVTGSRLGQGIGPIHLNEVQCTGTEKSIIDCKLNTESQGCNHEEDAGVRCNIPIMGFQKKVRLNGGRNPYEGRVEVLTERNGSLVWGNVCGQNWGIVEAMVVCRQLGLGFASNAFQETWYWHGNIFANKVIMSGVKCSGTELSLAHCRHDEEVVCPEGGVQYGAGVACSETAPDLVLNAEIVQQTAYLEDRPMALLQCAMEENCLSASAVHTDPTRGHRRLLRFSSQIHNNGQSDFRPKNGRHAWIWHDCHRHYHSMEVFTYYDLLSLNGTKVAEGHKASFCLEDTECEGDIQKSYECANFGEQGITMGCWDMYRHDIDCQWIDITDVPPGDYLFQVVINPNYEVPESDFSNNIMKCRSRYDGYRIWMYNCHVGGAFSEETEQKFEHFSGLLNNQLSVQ
Kind of assay: Ex vivo LOXL2 activity after oral dosing in rats (PXS-5878/Simoa). To be noted: 30 mg/kg oral. Here is the method: FIGURE 2 Characteristics of PXS‐5338 and inhibition of lysyl oxidase‐like 2 (LOXL2) enzymatic activity in vitro and in vivo. (A) Chemical structure of PXS‐5338. […] (B) Tissue levels of PXS‐5338 measured 1 and 4 h after a single oral dose of 30 mg/kg in the rat. […] Average data from three different animals. (C) Concentration‐dependent inhibition of native […] LOX and rh LOXL1‐4 in a standard Amplex Red assay with 30 min pre‐incubation; n ≥3 independent experiments, standard error of mean (SEM). (D) PXS‐5338 inhibits rh LOXL2 in a time‐dependent manner, with increasing potency observed upon longer incubation with the enzyme. LOXL2 activity data devised from Amplex Red assay using putrescine as substrate and varying pre‐incubation times; n ≥3 independent experiments, standard error of mean (SEM). […] AB0023 and the corresponding isotype control antibody GS834298 were kindly provided by Gilead. Concentration‐response curves for the pan‐LOX inhibitor BAPN and LOXL2‐selective inhibitor PXS‐5338 are included for comparison. Data represented as mean ± SD with n = 5/concentration. […] To enable translation of preclinical data into the clinic, human plasma was incubated with different concentrations of PXS‐5338 for 30 min and the PXS‐5878/Simoa® platform used to measure the residual activity. […]

[3] abbreviates: 10 mg/kg weeks 8-12, 30 mg/kg weeks 12-14.

Regarding `CC(C)c1c(Cc2ccc(S(C)(=O)=O)nc2)c2ncccc2n1C/C(F)=C/CN` [PXS-5338], in assay [1] (setting [3]), the “Collagen content (hydroxyproline)” value is listed as “significant reduction in collagen content”; the “Fibrosis, fibrotic area (picrosirius red staining)” value is on record as “significantly attenuated fibrosis”; the Hepatocyte ballooning result is listed as “reduction in hepatocyte ballooning”; the “Immature and mature crosslinks (DHLNL and PYD)” value was “reduction in immature and mature crosslinks”. The NASH scoring result in assay [1] (10 mg/kg weeks 8-12, 30 mg/kg weeks 12-14, vs NASH group) is “significantly decreased NASH scoring”.

Consider `CC(C)c1c(Cc2ccc(S(C)(=O)=O)nc2)c2ncccc2n1C/C(F)=C/CN` [PXS‐5338], for which the “Inhibition of LOXL2 activity in the lung (as in plasma)” value in assay [2] (4 h) is “almost complete inhibition”. The “Inhibition of LOXL2 activity remaining” value in assay [2] (24 h) was “no inhibition remained”.
